# According to patent US20050009005A1, “Methods of using quantitative lipid metabolome data” (Lipomics Technologies, Inc., priority 2001, published 2005):
# Test system: de novo fatty acid synthesis
# Test: Lipid metabolite profile of plasma, heart, liver and inguinal adipose of CL316,243-treated mice (trial 2; Tables 7 and 8)
# Type: in vivo
# Conditions: mean
# From the text: It is understood that the described methods can be used to analyze lipid metabolites from other subjects, including particularly animals other than mice.
# Mouse tissue and plasma samples were a generous donation to Lipomics Technologies, Inc., from Dr. Edward Leiter of the Jackson Laboratory (Bar Harbor, Me.). Samples included the plasma, heart, liver and inguinal adipose of mice treated with pharmaceuticals or their corresponding controls.
# In trial 2, male, inbred NON mice were fed a control with or without the presence of the β-3 adrenergic agonist CL316,243 for four weeks (at 0.001% CL316,243 by weight in the dietary chow).
# In both studies, five treated and five control mice were used. Following the treatments and the killing of the mice, tissues and plasma were taken, chilled to −80 ° C. and shipped to the analysis laboratory at Lipomics Technologies in a frozen state.
# Tissue processing and lipid extraction, including provision of internal standards, was carried out essentially as described in Watkins et al. (J. Lipid Res. Papers in Press, 10.1184/jlf.M200169-JLF200, published August 16, 2002), and in co-owned international application PCT/US02/21426, entitled “GENERATING, VIEWING, INTERPRETING, AND UTILIZING A QUANTITATIVE DATABASE OF METABOLITES,” both of which are incorporated in their entirety herein by reference.
# The separation of lipid classes was performed in some instance by preparative thin-layer chromatography (TLC). To remove any residual metal or other damaging contaminants on the TLC plates, each plate was washed prior to use. Washing the plates is a three-step process that involves impregnating each plate with ethylenediamine tetraacetic acid (EDTA) and rinsing the plates once with methanol and once with chloroform. Each plate is first impregnated with 1 mM EDTA, pH 5.5, by ascending development using the method of Ruiz (J. Lipid Res. 38, 1482-1489, 1997). After each plate was completely developed, it was dried in air overnight. Once dry, each plate was developed in methanol, dried, and developed in chloroform in the same direction as the development with EDTA. The washed plates were then dried in air. Just prior to use, each plate was activated by heating to 110° C. for 10 minutes.
# To prepare the TLC chamber for chromatography, Whatman (Clifton, N.J.) filter paper was cut into 20×80-cm strips and wrapped around the inside wall of a 30×60×10-cm glass development chamber. One hundred milliliters of the appropriate mobile phase was added to the chamber, and the chambers were sealed and allowed to equilibrate. Chambers were considered equilibrated when the solvent front had completely ascended the filter paper. The mobile phase employed for the separation of phospholipid classes (lyso-phospholipids, sphingomyelin, phosphatidylcholine, phosphatidylserine, phosphatidylethanolamine and cardiolipin) was a modification of the solvent system described by Holub and Skeaf (“Nutritional regulation of cellular phosphatidylinositol,” in Methods in Enzymology, ed. Conn, P. M. (Academic Press, Inc., Orlando), pp. 234-243, 1987) consisting of chloroform/methanol/acetic acid/water (100:67:7:4, by volume).
# For the separation of neutral lipid classes (free fatty acids, free sterols, triacylglycerides and cholesterol esters), a solvent system consisting of petroleum ether/diethyl ether/acetic acid (80:20:1, by volume) was used (Mangold, Thin Layer Chromatography—A Laboratory Handbook (Springer-Verlag, New York), 1969).
# After the TLC plate was activated, the sample extracts were spotted onto the activated plate. As a general rule, samples were spotted at an estimated concentration such that no single lipid class was present at more than 25 jig per centimeter of plate width following chromatography. This ensured that the plate was not overloaded and minimized the risk of cross-contamination between lipid classes (cross-contamination is readily identified during sample analysis as each lipid class contains unique internal standards). […]
compound,measurement,setting,value
"C[C@H](Cc1ccc2c(c1)OC(C(=O)[O-])(C(=O)[O-])O2)NC[C@H](O)c1cccc(Cl)c1.[Na+].[Na+] [CL316,243]",16:0,"Heart, PS/I",302.1 nanomoles per gram
same,16:1n7,"Heart, PS/I",48.6 nanomoles per gram
same,18:0,"Heart, PS/I",2823.7 nanomoles per gram
same,18:1n7,"Heart, PS/I",73.5 nanomoles per gram
same,18:1n9,"Heart, PS/I",572.9 nanomoles per gram
same,14:0,"Heart, TAG",78.8 nanomoles per gram
same,16:0,"Heart, TAG",651.6 nanomoles per gram
same,16:1n7,"Heart, TAG",57.3 nanomoles per gram
same,18:0,"Heart, TAG",195.5 nanomoles per gram
same,18:1n7,"Heart, TAG",28.0 nanomoles per gram
same,18:1n9,"Heart, TAG",402.8 nanomoles per gram
same,14:0,"Heart, lipid class CE",5.1 percentage of total fatty acids
same,16:0,"Heart, lipid class CE",15.4 percentage of total fatty acids
same,16:1n7,"Heart, lipid class CE",2.9 percentage of total fatty acids
same,18:0,"Heart, lipid class CE",7.0 percentage of total fatty acids
same,18:1n7,"Heart, lipid class CE",1.5 percentage of total fatty acids
same,18:1n9,"Heart, lipid class CE",30.1 percentage of total fatty acids
same,Saturates,"Heart, lipid class CE",30.3 percentage of total fatty acids
same,Total,"Heart, lipid class CE",100.0 percentage of total fatty acids
same,Total n7,"Heart, lipid class CE",4.4 percentage of total fatty acids
same,Total n9,"Heart, lipid class CE",31.5 percentage of total fatty acids
same,14:0,"Heart, lipid class CL",0.6 percentage of total fatty acids
same,16:0,"Heart, lipid class CL",2.0 percentage of total fatty acids
same,16:1n7,"Heart, lipid class CL",1.7 percentage of total fatty acids
same,18:0,"Heart, lipid class CL",3.3 percentage of total fatty acids
same,18:1n7,"Heart, lipid class CL",3.2 percentage of total fatty acids
same,18:1n9,"Heart, lipid class CL",8.0 percentage of total fatty acids
same,Saturates,"Heart, lipid class CL",6.5 percentage of total fatty acids
same,Total,"Heart, lipid class CL",25.0 percentage of total fatty acids
same,Total n7,"Heart, lipid class CL",4.9 percentage of total fatty acids
same,Total n9,"Heart, lipid class CL",8.5 percentage of total fatty acids
same,14:0,"Heart, lipid class FFA",2.9 percentage of total fatty acids
same,16:0,"Heart, lipid class FFA",17.8 percentage of total fatty acids
same,16:1n7,"Heart, lipid class FFA",2.3 percentage of total fatty acids
same,18:0,"Heart, lipid class FFA",7.4 percentage of total fatty acids
same,18:1n7,"Heart, lipid class FFA",2.2 percentage of total fatty acids
same,18:1n9,"Heart, lipid class FFA",29.9 percentage of total fatty acids
same,Saturates,"Heart, lipid class FFA",29.2 percentage of total fatty acids
same,Total,"Heart, lipid class FFA",100.0 percentage of total fatty acids
same,Total n7,"Heart, lipid class FFA",4.5 percentage of total fatty acids
same,Total n9,"Heart, lipid class FFA",30.8 percentage of total fatty acids
same,14:0,"Heart, lipid class PC",0.3 percentage of total fatty acids
same,16:0,"Heart, lipid class PC",26.9 percentage of total fatty acids
same,16:1n7,"Heart, lipid class PC",0.4 percentage of total fatty acids
same,18:0,"Heart, lipid class PC",17.4 percentage of total fatty acids
same,18:1n7,"Heart, lipid class PC",1.9 percentage of total fatty acids
same,18:1n9,"Heart, lipid class PC",6.6 percentage of total fatty acids
same,Saturates,"Heart, lipid class PC",45.0 percentage of total fatty acids
same,Total,"Heart, lipid class PC",50.0 percentage of total fatty acids
same,Total n7,"Heart, lipid class PC",2.2 percentage of total fatty acids
same,Total n9,"Heart, lipid class PC",6.8 percentage of total fatty acids
same,14:0,"Heart, lipid class PE",0.1 percentage of total fatty acids
same,16:0,"Heart, lipid class PE",9.3 percentage of total fatty acids
same,16:1n7,"Heart, lipid class PE",0.3 percentage of total fatty acids
same,18:0,"Heart, lipid class PE",26.7 percentage of total fatty acids
same,18:1n7,"Heart, lipid class PE",1.3 percentage of total fatty acids
same,18:1n9,"Heart, lipid class PE",4.8 percentage of total fatty acids
same,Saturates,"Heart, lipid class PE",36.5 percentage of total fatty acids
same,Total,"Heart, lipid class PE",50.0 percentage of total fatty acids
same,Total n7,"Heart, lipid class PE",1.6 percentage of total fatty acids
same,Total n9,"Heart, lipid class PE",5.0 percentage of total fatty acids
same,14:0,"Heart, lipid class PL",0.3 percentage of total fatty acids
same,16:0,"Heart, lipid class PL",16.0 percentage of total fatty acids
same,16:1n7,"Heart, lipid class PL",0.5 percentage of total fatty acids
same,18:0,"Heart, lipid class PL",19.8 percentage of total fatty acids
same,18:1n7,"Heart, lipid class PL",1.8 percentage of total fatty acids
same,18:1n9,"Heart, lipid class PL",6.1 percentage of total fatty acids
same,Saturates,"Heart, lipid class PL",37.0 percentage of total fatty acids
same,Total,"Heart, lipid class PL",50.0 percentage of total fatty acids
same,Total n7,"Heart, lipid class PL",2.3 percentage of total fatty acids
same,Total n9,"Heart, lipid class PL",6.5 percentage of total fatty acids
same,14:0,"Heart, lipid class PS/I",0.4 percentage of total fatty acids
same,16:0,"Heart, lipid class PS/I",3.5 percentage of total fatty acids
same,16:1n7,"Heart, lipid class PS/I",0.6 percentage of total fatty acids
same,18:0,"Heart, lipid class PS/I",33.1 percentage of total fatty acids
same,18:1n7,"Heart, lipid class PS/I",0.9 percentage of total fatty acids
same,18:1n9,"Heart, lipid class PS/I",6.7 percentage of total fatty acids
same,Saturates,"Heart, lipid class PS/I",38.0 percentage of total fatty acids
same,Total,"Heart, lipid class PS/I",50.0 percentage of total fatty acids
same,Total n7,"Heart, lipid class PS/I",1.4 percentage of total fatty acids
same,Total n9,"Heart, lipid class PS/I",7.1 percentage of total fatty acids
same,14:0,"Heart, lipid class TAG",4.1 percentage of total fatty acids
same,16:0,"Heart, lipid class TAG",34.2 percentage of total fatty acids
same,16:1n7,"Heart, lipid class TAG",2.9 percentage of total fatty acids
same,18:0,"Heart, lipid class TAG",10.1 percentage of total fatty acids
same,18:1n7,"Heart, lipid class TAG",1.5 percentage of total fatty acids
same,18:1n9,"Heart, lipid class TAG",21.5 percentage of total fatty acids
same,Saturates,"Heart, lipid class TAG",51.9 percentage of total fatty acids
same,Total,"Heart, lipid class TAG",33.3 percentage of total fatty acids
same,Total n7,"Heart, lipid class TAG",4.4 percentage of total fatty acids
same,Total n9,"Heart, lipid class TAG",22.9 percentage of total fatty acids
same,14:0,"Liver, CE",45.5 nanomoles per gram
same,16:0,"Liver, CE",462.8 nanomoles per gram
same,16:1n7,"Liver, CE",84.4 nanomoles per gram
same,18:0,"Liver, CE",121.3 nanomoles per gram
same,18:1n7,"Liver, CE",31.5 nanomoles per gram
same,18:1n9,"Liver, CE",455.4 nanomoles per gram
same,Saturates,"Liver, CE",668.6 nanomoles per gram
same,Total n7,"Liver, CE",115.9 nanomoles per gram
same,Total n9,"Liver, CE",482.4 nanomoles per gram
same,Total nMole of FA,"Liver, CE",1764.6 nanomoles per gram
same,14:0,"Liver, CL",21.3 nanomoles per gram
same,16:0,"Liver, CL",254.3 nanomoles per gram
same,16:1n7,"Liver, CL",85.8 nanomoles per gram
same,18:0,"Liver, CL",260.0 nanomoles per gram
same,18:1n7,"Liver, CL",215.4 nanomoles per gram
same,18:1n9,"Liver, CL",437.0 nanomoles per gram
same,Saturates,"Liver, CL",556.4 nanomoles per gram
same,Total n7,"Liver, CL",301.2 nanomoles per gram
same,Total n9,"Liver, CL",473.0 nanomoles per gram
same,Total nMole of FA,"Liver, CL",1255.5 nanomoles per gram
same,14:0,"Liver, FFA",152.9 nanomoles per gram
same,16:0,"Liver, FFA",2280.7 nanomoles per gram
same,16:1n7,"Liver, FFA",375.0 nanomoles per gram
same,18:0,"Liver, FFA",460.2 nanomoles per gram
same,18:1n7,"Liver, FFA",273.5 nanomoles per gram
same,18:1n9,"Liver, FFA",2293.4 nanomoles per gram
same,Saturates,"Liver, FFA",2951.3 nanomoles per gram
same,Total n7,"Liver, FFA",648.5 nanomoles per gram
same,Total n9,"Liver, FFA",2337.2 nanomoles per gram
